From ChEMBL document CHEMBL1140437, “N-substituted cis-4a-(3-hydroxyphenyl)-8a-methyloctahydroisoquinolines are opioid receptor pure antagonists” (J Med Chem, 2005) come the findings set out here.

Test [1] has as its target Kappa-type opioid receptor (Homo sapiens) (UniProt P41145).
Description: Inhibition of U69,593 stimulated [35S]GTP-gamma-S binding to cloned human kappa opioid receptor
Test [2] has as its target Opioid receptors; mu & kappa (Homo sapiens) (UniProt P41145+P35372). The experiment in a line: Selectivity for cloned human mu opioid receptor over kappa opioid receptor. Format: protein assay.
Test [3] has as its target Mu-type opioid receptor (Homo sapiens) (UniProt P35372).
Description: Inhibition of DAMGO stimulated [35S]GTP-gamma-S binding to cloned human mu opioid receptor
Test [4] addresses Delta-type opioid receptor (Homo sapiens) (UniProt P41143).
Description: Inhibition of DPDPE stimulated [35S]GTP-gamma-S binding to cloned human delta opioid receptor
Test [5] concerns the target Opioid receptors; delta & kappa (Homo sapiens) (UniProt P41145+P41143). The experiment in a line: Selectivity for cloned human delta opioid receptor over kappa opioid receptor. Format: protein assay.

Sequence of Kappa-type opioid receptor (Homo sapiens) (P41145 whole entry): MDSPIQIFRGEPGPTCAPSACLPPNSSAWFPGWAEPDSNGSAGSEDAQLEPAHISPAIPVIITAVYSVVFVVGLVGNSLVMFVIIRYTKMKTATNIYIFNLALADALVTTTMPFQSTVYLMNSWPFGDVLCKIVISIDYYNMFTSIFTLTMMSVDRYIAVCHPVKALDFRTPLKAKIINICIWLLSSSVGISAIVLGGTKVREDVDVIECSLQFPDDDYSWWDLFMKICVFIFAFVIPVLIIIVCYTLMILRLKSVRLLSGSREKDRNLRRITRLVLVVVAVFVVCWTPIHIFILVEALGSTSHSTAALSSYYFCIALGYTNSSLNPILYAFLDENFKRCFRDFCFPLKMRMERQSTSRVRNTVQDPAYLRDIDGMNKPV
Sequence of Opioid receptors; mu & kappa (Homo sapiens) (P35372 whole entry, looked up): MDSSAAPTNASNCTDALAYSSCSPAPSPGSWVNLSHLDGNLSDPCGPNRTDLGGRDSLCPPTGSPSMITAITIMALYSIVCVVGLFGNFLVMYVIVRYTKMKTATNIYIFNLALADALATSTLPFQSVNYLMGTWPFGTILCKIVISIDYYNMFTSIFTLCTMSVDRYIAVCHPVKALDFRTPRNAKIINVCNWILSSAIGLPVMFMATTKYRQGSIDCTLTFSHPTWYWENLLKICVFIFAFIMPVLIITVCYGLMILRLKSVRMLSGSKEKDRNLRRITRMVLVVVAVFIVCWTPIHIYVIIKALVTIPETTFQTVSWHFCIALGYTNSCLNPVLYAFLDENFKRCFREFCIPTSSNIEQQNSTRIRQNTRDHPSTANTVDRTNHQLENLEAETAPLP
Sequence of Opioid receptors; mu & kappa (Homo sapiens) (P41145 whole entry, looked up): as the sequence (P41145 whole entry) above
Sequence of Mu-type opioid receptor (Homo sapiens) (P35372 whole entry): as the sequence (P35372 whole entry, looked up) above
Sequence of Opioid receptors; delta & kappa (Homo sapiens) (P41143 whole entry, looked up): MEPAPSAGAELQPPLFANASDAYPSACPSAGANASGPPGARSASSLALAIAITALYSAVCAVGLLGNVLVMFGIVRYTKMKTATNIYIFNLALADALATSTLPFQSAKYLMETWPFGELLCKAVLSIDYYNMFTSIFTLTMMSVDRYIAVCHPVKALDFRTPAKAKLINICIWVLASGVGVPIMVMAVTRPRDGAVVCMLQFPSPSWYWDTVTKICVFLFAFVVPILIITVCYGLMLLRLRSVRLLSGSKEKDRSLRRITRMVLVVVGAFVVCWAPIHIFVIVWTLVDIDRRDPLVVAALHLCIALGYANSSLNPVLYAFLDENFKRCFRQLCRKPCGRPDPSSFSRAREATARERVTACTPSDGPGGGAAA
Sequence of Opioid receptors; delta & kappa (Homo sapiens) (P41145 whole entry, looked up): as the sequence (P41145 whole entry) above
Sequence of Delta-type opioid receptor (Homo sapiens) (P41143 whole entry): as the sequence (P41143 whole entry, looked up) above

Turning to `CN1CC[C@]2(c3cccc(O)c3)CCCC[C@]2(C)C1`, the Ke was 3.37 nM in test [1], 99.4 nM in test [3] and 477 nM in test [4]. Further, the Ratio Ke was 29 in test [2] and 141 in test [5].
On to `C[C@H]1CN(CC[C@H](O)C2CCCCC2)CC[C@@]1(C)c1cccc(O)c1`, for which the Ke stood at 0.1 nM in test [3] and 0.6 nM in test [4].
For the compound `C[C@]12CC[C@@H](NC(=O)C3(c4ccccc4)CCCC3)C[C@@]1(c1cccc(O)c1)CCN(CCCc1ccccc1)C2`, the Ke in test [1] was 1.93 nM; in test [3], 1.46 nM; in test [4], 6.46 nM. For the same compound, the Ratio Ke in test [2] was 0.8; in test [5] it was 3.
For the compound `Oc1ccc2c3c1O[C@H]1c4[nH]c5c(c4C[C@@]4(O)[C@@H](C2)N(CC2CC2)CC[C@]314)C[C@@]1(O)[C@H]2Cc3ccc(O)c4c3[C@@]1(CCN2CC1CC1)[C@H]5O4`, the Ratio Ke stood at 475 in test [2] and 110 in test [5].
For the compound `C[C@]12CCCC[C@@]1(c1cccc(O)c1)CCN(CCCc1ccccc1)C2` (relative stereo), the figures for the Ke in test [1], in test [3] and in test [4] were 1.03 nM, 0.8 nM and 12.4 nM, respectively. In addition, the Ratio Ke in test [2] came to 0.8; in test [5], 12.
For `C[C@]12CCCC[C@@]1(c1cccc(O)c1)CCN(CCc1ccccc1)C2` (relative stereo), in that order: 2.84 nM, 0.84 nM, 18.9 nM, 0.3 and 7.
For the compound `C[C@]12CC[C@@H](NC(=O)CCN3CCCCC3)C[C@@]1(c1cccc(O)c1)CCN(CCCc1ccccc1)C2` (relative stereo), the Ke in test [1] amounted to 0.27 nM; in test [3], 41.7 nM; in test [4], 12.3 nM. The values for the Ratio Ke in test [2] and in test [5] were 154 and 46, respectively.
`C[C@]12CC[C@@H](NC(=O)CCN3CCc4ccccc4C3)C[C@@]1(c1cccc(O)c1)CCN(CCCc1ccccc1)C2` (relative stereo): the results for the Ke in test [1], in test [3] and in test [4] were 0.22 nM, 9.82 nM and 4.56 nM, respectively. Also, the Ratio Ke came to 45 in test [2] and 21 in test [5].
On the same counts, the results for `C[C@]12CC[C@@H](NC(=O)c3cc4ccccc4s3)C[C@@]1(c1cccc(O)c1)CCN(CCCc1ccccc1)C2` (relative stereo) are 0.46 nM, 11.3 nM, 1.01 nM, 25 and 2.
